Source: patent EP3723746B1, “PHENOXY ACIDS FOR THE TREATMENT OF NEUROMUSCULAR DISORDERS” (NMD Pharma A/S, priority 2017, dated 2019)

Tests used:
human CIC-1 channels = target: T1, human CIC-1 channels (Homo sapiens, UniProt P35523); assay: Automated patch-clamp on the human isoform of CIC-1 expressed in CHO cells; assay type: cell-based; details: compound added intracellularly vs control cell patches; positive shift reflects CIC-1 inhibition
T1 construct: host or cells: CHO cells constitutively expressing human ClC-1
T1 sequence (P35523 whole entry, canonical isoform): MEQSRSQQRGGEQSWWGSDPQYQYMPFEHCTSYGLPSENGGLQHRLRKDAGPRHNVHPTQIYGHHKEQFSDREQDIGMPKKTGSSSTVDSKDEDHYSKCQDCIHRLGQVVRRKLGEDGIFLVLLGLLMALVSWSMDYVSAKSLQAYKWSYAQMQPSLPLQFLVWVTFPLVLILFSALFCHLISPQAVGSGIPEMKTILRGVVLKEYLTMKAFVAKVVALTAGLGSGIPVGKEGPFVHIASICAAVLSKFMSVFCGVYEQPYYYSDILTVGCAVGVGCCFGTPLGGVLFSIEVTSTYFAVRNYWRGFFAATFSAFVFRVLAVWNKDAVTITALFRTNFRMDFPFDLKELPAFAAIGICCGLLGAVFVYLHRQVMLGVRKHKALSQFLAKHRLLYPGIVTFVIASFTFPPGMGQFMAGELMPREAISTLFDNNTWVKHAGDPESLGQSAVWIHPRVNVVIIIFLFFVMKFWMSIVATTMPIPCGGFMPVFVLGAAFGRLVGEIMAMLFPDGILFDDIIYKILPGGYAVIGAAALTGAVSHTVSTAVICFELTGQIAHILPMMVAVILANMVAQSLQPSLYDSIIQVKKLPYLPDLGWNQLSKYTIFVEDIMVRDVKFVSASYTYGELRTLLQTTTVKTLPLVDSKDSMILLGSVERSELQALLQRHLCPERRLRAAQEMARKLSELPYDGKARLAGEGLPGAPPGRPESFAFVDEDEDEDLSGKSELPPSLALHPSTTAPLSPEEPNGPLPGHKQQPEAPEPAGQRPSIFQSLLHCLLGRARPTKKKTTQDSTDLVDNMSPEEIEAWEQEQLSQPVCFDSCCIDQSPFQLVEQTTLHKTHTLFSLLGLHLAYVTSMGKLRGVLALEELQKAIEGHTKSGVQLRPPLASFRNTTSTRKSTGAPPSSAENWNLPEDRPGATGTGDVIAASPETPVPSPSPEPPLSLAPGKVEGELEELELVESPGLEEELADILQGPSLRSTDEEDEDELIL
Protocol: The investigatory goal of these experiments was to evaluate how compounds affect the open probability and current amplitude of human CIC-1 channels expressed in CHO cells. Experiments were performed using an automated patch clamp system that allowed high throughput testing of whole cell patches together with both intracellular and extracellular addition of compound.
Automated whole cell patch clamp experiments were performed with the Qpatch 16 system (Sophion Bioscience, Ballerup, Denmark) at room temperature. Data acquisition and analysis were performed in the Qassay software (ver. 5.6, Odense).
To evoke CIC-1 currents in whole cell patches, the membrane potential was initially stepped from a holding potential of -30 mV to +60 mV for 100 ms and then to various test voltages (sweeps) ranging from +120 mV to -140 mV in steps of 20 mV for 300 ms. To obtain tail currents, the membrane potential was stepped to -100 mV after each test voltage for 300 ms and then relaxed to -30 mV for 2 sec between sweeps (Figure 3). I/V relationships for whole cell instant and steady state current amplitudes were obtained by plotting average current densities at the beginning and at the end of the 300 ms step against the membrane potential (Figure 4).
In order to determine the relative overall open probability (P0), the instantaneous tail currents were normalized to the maximal tail current obtained following the most positive voltage step and plotted against the test voltage. Plots of normalized tail currents from each whole cell patch were then fitted to a Boltzmann function allowing determination of half activation voltages (V1/2, Figure 5).
For automated patch clamp experiments extracellular solutions contained: 2 mM CaCl2, 1 mM MgCl2, 10 mM HEPES, 4 mM KCI, 145 mM NaCl, 10 mM Glucose, pH adjusted to 7.4 with NaOH (2 M). Osmolality adjusted to ~320 using sucrose.
Intracellular solutions contained: 80 mM CsF, 60 mM CsCI, 5/1 mM KOH/EGTA, 10 mM HEPES, 10 mM NaCl, pH adjusted to 7.2 with NaOH (2 M). Osmolality adjusted to ~320 mOsm using sucrose.
Cells used in patch clamp experiments were Chinese hamster ovary cells (CHO) constitutively expressing human CIC-1 channels. The amino acid sequence encoded by the cDNA used to create this cell line was identical to the translated sequence for GenBank accession number NM_000083.2. Cells were produced by Charles River (Catalogue CT6175, Cleveland OH, USA) in a cryopreserved format. Experiments were performed on the cells directly after thawing (3 × 10^6 cells used in each experiment).
To evaluate the compound effect on CIC-1, when applied directly to the intracellular side of the cell membrane, the half activation voltage, V1/2, was determined from whole cell patches with compound added to the intracellular solution and then compared to V1/2 determined from control cell patches with only vehicle added to the intracellular solution. Additionally, the effect of extracellular added compound was evaluated by determine V1/2 and steady state current amplitudes before and after exchanging the extracellular solution to contain compound.
The difference in half activation voltage of CIC-1 channels, ΔV1/2, was determined as the difference between the cell patches treated intracellularly with compound and control cells patches and is reported in Table 4 below. A positive shift in ΔV1/2 is reflecting CIC-1 channel inhibition by the tested compound. P-values of <0.05 is considered significant. […]

Lewis rats = assay: Measurement of in situ muscle contractile characteristics (isometric hindlimb force under cisatracurium block); assay type: in vivo; details: 21.5 mg/kg i.v., cisatracurium infusion, 3 experiments
Protocol: Isometric hindlimb force was measured in 12-week old female Lewis rats in the presence and absence of compound.
Rats were placed under anesthesia with isoflurane (2-4%), intubated and subsequently connected to a micro ventilator (Microvent 1, Hallowell EMC, US). Two stimulation electrodes were inserted through the skin to stimulate the sciatic nerve. A small incision was made proximal to the ankle, to expose the Achilles tendon, which was tied by cotton string, and connected to a force transducer (Fort250, World Precision Instruments) with adjustable position (Vernier control). The Achilles tendon was then cut distal to the attached cotton string. The rat was placed on a heated pad, and to prevent movement artefacts from contraction of the ankle dorsiflexors, the foot was fixated by tape on a footplate.
Muscle contractile properties were assessed by applying an electrical current (under supramaximal voltage conditions) to the nerve and recording the force generated by the muscle. The muscle was stretched until maximal force was obtained, when assessed by 2 Hz stimulation. Isometric force was measured every 30 seconds at 12 Hz (Twitch), 10 pulses, and at every 5 minutes at 80 Hz (Tetanic) for 1 second (80 pulses). This stimulation pattern was employed throughout the experiment, expect in few cases where 80 Hz stimulation was replaced by 12 Hz (10 pulses). […] When the level of neuromuscular inhibition was stable, the test article was injected i.v. at the chosen concentration. The effect of test article was assessed on its ability to increase force generated from the stimulation pattern applied. The effect was assessed in the ability to increase force per se (tetanic, 80 Hz, stimulation), and the ratio between individual twitch peaks (12 Hz stimulation). The effect was monitored for at least 1 hour after injection of test article. In addition, the time from injection of test article to maximal effect on force (both twitch and tetanic) was noted and the time for the effect to disappear (return to baseline), if possible. When appropriate the infusion of neuromuscular blocking agent was ceased, with the stimulation pattern continued, and the return of force to control levels was monitored. Animals were sacrificed by cervical dislocation while still fully sedated.

CIC-1 channels = target: T2, CIC-1 channels (Rattus norvegicus, UniProt P35524); assay: Electrophysiological measurement of compound inhibition of CIC-1 in rat muscle (Gm, three micro-electrode technique, soleus muscle fibres); assay type: cell-based; details: reduction of Gm in rat soleus muscle fibres, approx. 30°C; mean ± spread, n = number of experiments
T2 construct: from tissue; host or cells: whole soleus muscle of 12-14 week old Wistar rats
T2 sequence (P35524 1-994): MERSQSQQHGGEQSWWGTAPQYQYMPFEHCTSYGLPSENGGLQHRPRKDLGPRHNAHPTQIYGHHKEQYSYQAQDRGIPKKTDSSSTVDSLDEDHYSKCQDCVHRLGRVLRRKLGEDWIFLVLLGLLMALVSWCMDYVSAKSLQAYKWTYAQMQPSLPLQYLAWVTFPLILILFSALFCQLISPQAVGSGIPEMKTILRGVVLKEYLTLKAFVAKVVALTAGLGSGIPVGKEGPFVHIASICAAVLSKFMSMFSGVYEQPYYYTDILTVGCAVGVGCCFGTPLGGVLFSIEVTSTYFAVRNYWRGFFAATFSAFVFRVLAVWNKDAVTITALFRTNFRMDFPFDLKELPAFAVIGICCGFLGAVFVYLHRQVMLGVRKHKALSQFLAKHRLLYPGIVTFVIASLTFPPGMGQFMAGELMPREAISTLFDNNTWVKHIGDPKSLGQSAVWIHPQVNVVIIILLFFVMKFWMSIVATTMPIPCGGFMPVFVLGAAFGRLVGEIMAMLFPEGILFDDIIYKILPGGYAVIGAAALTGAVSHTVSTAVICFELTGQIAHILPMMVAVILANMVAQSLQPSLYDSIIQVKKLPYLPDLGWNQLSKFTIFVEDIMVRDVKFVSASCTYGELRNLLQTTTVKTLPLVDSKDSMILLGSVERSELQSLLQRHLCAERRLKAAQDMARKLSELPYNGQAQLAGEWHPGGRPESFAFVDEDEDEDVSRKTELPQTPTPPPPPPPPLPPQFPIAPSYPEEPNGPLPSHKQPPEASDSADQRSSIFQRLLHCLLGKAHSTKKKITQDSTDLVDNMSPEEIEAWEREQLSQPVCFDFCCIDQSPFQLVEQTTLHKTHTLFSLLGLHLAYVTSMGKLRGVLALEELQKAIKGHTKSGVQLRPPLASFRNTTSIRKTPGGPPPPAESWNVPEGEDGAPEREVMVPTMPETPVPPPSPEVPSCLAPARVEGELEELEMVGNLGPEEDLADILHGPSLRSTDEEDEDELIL
Text: Table 2: Inhibition of CIC-1 ion channel using compounds of the invention

soleus muscles = assay: Measurement of force in an in vitro model: recovery of contractile force of isolated rat soleus nerve-muscle preparation after tubocurarine; details: Rattus norvegicus, 40 min; 50 µM test compound, after 90 mins 115 nM tubocurarine; percentage of the initial force restored after 40 mins of compound exposure; read-out: Point increase
Protocol: Recovery of force is quantified as the percentage of the force prior to tubocurarine that is recovered by the compound.
The current invention relates to compounds that inhibit CIC-1 ion channels and increase muscle excitability and thereby improve muscle function in clinical conditions where muscle activation is failing. Such conditions result in loss of contractile function of skeletal muscle, weakness and excessive fatigue. In this series of experiments the compounds were tested for their ability to restore contractile function of isolated rat muscle when the neuromuscular transmission had been compromised akin to neuromuscular disorders.
Experimentally, soleus muscles from 4-5 week old rats were isolated with the motor nerve remaining attached. The nerve-muscle preparations were mounted in experimental setups that enabled electrical stimulation of the motor nerve. Stimulation of the motor nerve led to activation of the muscle fibres and ensuing force production that was recorded.
After mounting the nerve-muscle preparation in the experimental setup, the contractile function of the muscle was initially assessed under the control conditions (Figure 2A). […] The experimental condition mimics the failing neuromuscular transmission in a range of neuromuscular disorders. After addition of tubocurarine the contractile force declined over the next 90 mins to 10-50 % of the control force. 50 µM of the test compound was then added and the contractile force recovered despite the continued presence of tubocurarine. To quantify the ability of the compound to restore force the percentage of the initial force that was restored was determined after 40 mins of compound exposure (Figure 2B) and the point increase is reported in Table 3. Table 3: Percentage increase of initial force that was restored

| SMILES | ΔV1/2 (human CIC-1 channels) | EC50 (CIC-1 channels) | activation at 50 µM (soleus muscles) | also measured |
| --- | --- | --- | --- | --- |
| C[C@H](Oc1ccc(Cl)cc1C1CC1)C(=O)O [Compound A-4, (2S)-2-(4-chloro-2-cyclopropylphenoxy)propanoic acid] | 8.8 mV |  |  |  |
| [2H]C([2H])(C)C(=O)c1cc(Cl)ccc1O[C@@H](C)C(=O)O [Compound A-27, (2S)-2-{4-chloro-2-[(2,2-^2H2)propanoyl]phenoxy}propanoic acid] |  | 8.3 µM | 36% |  |
| CCC(=O)c1cc(Cl)ccc1O[C@@H](C)C(=O)O [Compound A-30, (2S)-2-(4-chloro-2-propanoylphenoxy)propanoic acid] | 6.2 mV |  |  |  |
| C[C@H](Oc1ccc(Br)cc1C=C(F)F)C(=O)O [Compound A-36, (2S)-2-[4-bromo-2-(2,2-difluoroethenyl)phenoxy]propanoic acid] | 21.5 mV | 3.7 µM | 16% |  |
| C[C@H](Oc1cc(F)c(Br)cc1C1CC1)C(=O)O [Compound A-44, (2S)-2-(4-bromo-2-cyclopropyl-5-fluorophenoxy)propanoic acid] |  |  | 12% |  |
| C#Cc1cc(Br)c(F)cc1O[C@@H](C)C(=O)O [Compound A-47, (2S)-2-(4-bromo-2-ethynyl-5-fluorophenoxy)propanoic acid] |  |  | 15% |  |
| C#Cc1cc(Cl)c(F)cc1O[C@@H](C)C(=O)O [Compound A-48, (2S)-2-(4-chloro-2-ethynyl-5-fluorophenoxy)propanoic acid] |  |  | 14% |  |
| C=Cc1cc(Br)ccc1O[C@@H](CCF)C(=O)O [Compound A-51, (2S)-2-(4-bromo-2-ethenylphenoxy)-4-fluorobutanoic acid] |  | 4 ± 3 µM | 27% |  |
| C[C@H](Oc1ccc(Br)cc1/C=C/F)C(=O)O [Compound A-52, (2S)-2-{4-bromo-2-[(1E)-2-fluoroethenyl]phenoxy}propanoic acid] |  | 3 µM |  |  |
| C#Cc1cc(Br)ccc1OCC(=O)O [Compound A-56, 2-(4-bromo-2-ethynylphenoxy)acetic acid] |  |  | 14% |  |

Continued, in another order:

| ΔV1/2 (human CIC-1 channels) | EC50 (CIC-1 channels) | SMILES | activation at 50 µM (soleus muscles) | also measured |
| --- | --- | --- | --- | --- |
| 9.2 mV |  | C[C@H](Oc1ccc(Br)cc1C1CC1)C(=O)O [Compound A-2, (2S)-2-(4-bromo-2-cyclopropylphenoxy)propanoic acid] |  | change in twitch peaks (Lewis rats; 12 Hz stimulation): no significant change; average increase in tetanic force (Lewis rats; 80 Hz stimulation): 28.5% |
|  | 4.3 ± 2.3 µM | C[C@H](Oc1ccc(Br)cc1C1CCC1)C(=O)O [Compound A-14, (2S)-2-(4-bromo-2-cyclobutylphenoxy)propanoic acid] | 17% |  |
| 10.3 mV | 4.2 ± 0.7 µM | C=Cc1cc(Br)ccc1O[C@@H](C)C(=O)O [Compound A-17, (2S)-2-(4-bromo-2-ethenylphenoxy)propanoic acid] | 21% |  |
| 26.4 mV |  | C#Cc1cc(Cl)ccc1O[C@@H](C)C(=O)O [Compound A-20, (2S)-2-(4-chloro-2-ethynylphenoxy)propanoic acid] |  |  |
|  | 6.1 µM | C#Cc1cc(Br)ccc1O[C@H](C(=O)O)C1CCC1 [Compound A-46, (2S)-2-(4-bromo-2-ethynylphenoxy)-2-cyclobutylacetic acid] |  |  |
|  | 7.2 ± 3.5 µM | C#Cc1cc(Br)ccc1O[C@@H](CC)C(=O)O [Compound A-54, (2S)-2-(4-bromo-2-ethynylphenoxy)butanoic acid] | 18% |  |
|  | 6.4 µM | O=C(O)COc1ccc(Br)cc1C1CC1 [Compound A-55, 2-(4-bromo-2-cyclopropylphenoxy)acetic acid] | 25% |  |
